Experimental data taken from US11590092B2, “Skin probiotic” (The Regents of the University of California, priority 2014, dated 2023).
Entries after “also recorded” stand apart in the source; their conditions may differ.

Key:
[1] = tested on: USA300; assay: In vivo skin wound infection with USA300; design: species or system ICR mice; settings: for USA300 colonization / growth in the skin lesions: vs controls
Experimental: ICR mice (2-3-month-old female) were anesthetized by isoflurane. In each experiment, there were five mice per group. A wound 5 mm in length was made on the dorsal skin after shaving with electrical clippers. Once the skin wound was created, 5 μl of propionic acid (100 mM), PBS (pH 7.1) or PBS (pH 3.5) was applied topically to the wounded areas. The wounds were left uncovered throughout the experimental period. For bacterial infection, USA300 (2×10^6 CFU in PBS) was applied topically to the wounded areas 10 min after application of propionic acid or PBS. For the measurement of the extent of wound closure, a transparent parafilm was put on the top of the wounded skin. The wound area was marked on the parafilm by drawing an area which covered the whole skin wound. The lesion size was measured daily for 8 days was calculated using the ImageJ software [National Institutes of Health (NIH), Bethesda, Md., USA] and expressed as mm^2. Student's t-test was used to determine the significance of the differences between groups of the PBS (pH 7.1)- and propionic acid-treated mice as well as the PBS (pH 7.1)- and PBS (pH 3.5)-treated mice. Data represent the mean±SD from three independent experiments. All experiments using mice were conducted in a Biosafety Level 2 (BSL-2) facility and with accordance to institutional guidelines for animal experiments.
The USA300-infected skins treated with propionic acid and its controls were cross-sectioned, stained with hematoxylin and eosin (H&E) (Sigma, St. Louis, Mo.), and viewed on a Bx51 research microscope (Olympus, Melville, N.Y., USA). To determine the bacterial number in infected skin, the whole area of infected skin was excised 72 h after bacterial application. The excised skin was homogenized in 200 μl of sterile PBS with a hand tissue grinder. Bacterial CFUs in the skin were enumerated by plating serial dilutions (1:10^1-1:10^6) of the homogenate on a TSB agar plate. The plate was incubated for 24 h at 37° C. to count colonies.
ICR mice (2-3 month-old females; Harlan Labs, Placentia, Calif., USA) were anesthetized by isoflurane. A 5 mm wounds were made on the dorsal skin following shaving with electrical clippers. Following skin wounding, 5 μl of filter sterilized media obtained by incubating P. acnes (10^5 CFU/ml in 10 ml) with/without glycerol for 17 days or 5 μl of media with glycerol (control) were applied and to the wounded areas. To determine if propionic acid can prevent or mitigate the MRSA infection, 5 μl of 100 mM propionic acid was applied to the wounded areas. Application of PBS/pH (pH 3.5, corresponding to pH for 100 mM propionic acid) or PBS (pH 7.1) to the wounded areas served as controls. The wounds were left uncovered throughout the experimental period. USA300 (2×10^6 CFU in 5 μl PBS) was then applied to the wounds 10 min after application of various media, propionic acid or PBS controls. To measure the extent of wound closure, a transparent parafilm was placed over the wounded skin and the area was marked by outlining the area of the wound. The lesion size (mm^2) was measured daily for 8 days then calculated with ImageJ software (NIH, Bethesda, Md., USA). Five mice per group per experiments were used. A Student's t-test was used to determine the significance of the differences between groups. Data represent the mean±SD from three independent experiments. All experiments using mice were conducted in a biosafety level 2 (BSL-2) facility and in accordance with institutional guidelines for animal experiments. To determine the bacterial counts in infected skin, the infected skin was excised 72 h following bacterial application. The excised skin was weighted and homogenized in 200 μl of sterile PBS with a tissue grinder. Bacterial CFUs in the skin were enumerated by plating serial dilutions (1:10^1-1:10^6) of the homogenate on a TSB agar plate. The plate was incubated for 24 h at 37° C. to count colonies. […]

[2] = tested on: E. coli; assay: Minimal bactericidal concentration test against E. coli; assay type: cell-based, Escherichia coli; settings: MBC test
Experimental: To determine the minimal bactericidal concentration (MBC) and minimal fungicidal concentration (MFC) of propionic acid, microorganisms (10^6 colony forming units (cfu)/ml) were incubated overnight in media with propionic acid (1.25-2,000 mM) in a 96-well microplate (100 μl per well). The control only received PBS. After incubation, the microorganisms were diluted 1:10-1:10^6 into PBS. The dilutions (5 μl) were spotted onto agar media to count cfu; MBC/MFC were determined at 99.9% killing level. To determine the effect of pH on growth of S. aureus USA300, the bacterium was incubated in TSB at pH 5.8 and 6.8, and TSB with 25 mM propionic acid at pH 5.8 and 6.8 (buffered with 4-(2-hydroxyethyl)-1-piperazineethanesulfonic acid (HEPES)) in a 96-well microplate overnight before spotting onto agar plates.

[3] = tested on: C. albicans; assay: Radial diffusion assay against C. albicans; assay type: cell-based, Candida albicans
Experimental: A radial diffusion assay (RDA) was performed as follows. Briefly, microorganisms in the mid-log phase were centrifuged at 12,000×g for 10 min, washed with PBS, and dispersed (10^5 cfu/ml) in agar consisting of 1% (w/v) agarose (Sigma) and 3% (w/v) culture medium in PBS at 42° C. Then, the agar was poured into Petri dishes and solidified. Wells (diameter 3 mm and volume 30 μl) were created by poking a pipette tip into the semi-solidified agar. Propionic acid was serially diluted in PBS to concentrations ranging from 5 to 2,000 mM, and 30 μl aliquots were added to the wells; PBS served as the control. After 3 h of incubation, a 10 ml overlay gel composed of 3% culture medium and 1% agarose was poured onto the plates, where after the plates were incubated overnight and examined for zones of growth inhibition.

[4] = tested on: S. aureus strains ATCC29247 and CMCC(B)26003; assay: Inhibition of other S. aureus strains; assay type: cell-based, Staphylococcus aureus

## CCC(=O)O [propionic acid]
[1]; topical 100 mM propionic acid 10 min before USA300 (2×10^6 CFU), vs PBS
  sizes of USA300-infected skin lesions: considerably decreased; also recorded: significantly reduced
[1]; topical 100 mM propionic acid, three days after bacterial application (FIG. 10F)
  bacterial numbers in USA300-infected lesions: 6.9±0.7×10^7 CFU
[1]; topical 100 mM propionic acid, three days after bacterial application (FIG. 11F)
  bacterial numbers in USA300-infected lesions: 1.4±1.4×10^7 CFU/g
[1]; topical 100 mM propionic acid, vs PBS-treated wounds
  histological observation (H&E) of inflammatory response in wounds: less pronounced inflammatory response; also recorded: attenuated inflammatory response
[1]; topical 100 mM propionic acid
  USA300 colonization / growth in the skin lesions: considerably decreased
[1]; topical 100 mM propionic acid, listed as Propionic acid
  USA300 colonization / growth in the skin lesions: significantly decreased
[2]
  concentration that completely killed E. coli: ≥ 50 mM
  concentration that effectively suppressed the growth of E. coli: greater than 10 mM
[3]
  minimum effective concentration for growth inhibition zones, C. albicans: 10 mM
[4]
  inhibition of S. aureus strains besides USA300: inhibit
